{
  "source": "patent US7736646B2",
  "about": "“Methods for modulating angiogenesis with apelin compositions” (Arizona Board of Regents on behalf of the University of …, priority 2003, dated 2010)",
  "key": {"BAE/APJ#2 cells [1]": {"test_system": "BAE/APJ#2 cells", "details": "10 ng/ml in bottom chamber, 16 hours", "experimental": "Bovine aortic endothelial cells (BAE) were cultured in DMEM supplemented with 10% fetal bovine serum (FBS) and penicillin/streptomycin. For generation of stable cell lines expressing APJ, the mouse APJ coding region was cloned into the pcDNA 3.1 vector downstream of the CMV promoter, in frame with a myc epitope at the C-terminal end of the protein, and upstream of the neomycin gene. […] Colonies were isolated and screened using RT-PCR for expression of mouse APJ and also by immunocytochemistry for expression of the myc epitope.\nCell migration assays were performed using Transwell cell culture migration chambers (Becton Dickinson) with 8 micron pore size. BAE/APJ#2 cells were plated in serum free conditions in 100 μl at a concentration of 1×10^5 ml in the upper chamber of the migration chamber. Following cell attachment to the membrane, 10 ng/ml of growth factor was added to the bottom chamber, in a total volume of 0.5 ml. Cells were stimulated with growth factor in DMEM for 16 hours, or DMEM alone, at which time the cells remaining in the upper chamber were removed using a cotton tip applicator. Following a brief wash with PBS the remaining cells were fixed in 3.7% formaldehyde at 4° C. for 1 hour. Cells attached to the membrane in the lower chamber were stained with DAPI, and 3 random fields were counted for each experimental condition."}, "BAE/APJ#2 cells [2]": {"test_system": "BAE/APJ#2 cells", "assay": "Endothelial cell proliferation assay (BrdU incorporation)", "type": "cell-based, bovine", "experimental": "SU1498 was included in proliferation cultures at a concentration of 10 ng/ml and results were assayed using BrdU incorporation. After growth factor incubation, BrdU was added to each well at a final concentration of 10 μM for 2 hours, cells were washed, and fixed for BrdU immunocytochemistry.\nCells were fixed in 100% ice cold methanol at 4° C. for 2 hours to overnight. Prior to staining, cells were air dried and rehydrated for 3 minutes with PBS buffer. DNA was denatured at 37° C. with 2 M HCl, and neutralized with 2 washes for 5 minutes in 0.1 M borate buffer (pH 8.5). […] FITC-labeled anti-BrdU antibody (5 μg/ml) in block was added for 1 hour at room temperature. Cells were counterstained with propidium iodide following several washes in PBS buffer. For each experiment, 4 random fields were photographed for determination of percentage BrdU labeling."}, "[3]": {"test_system": "primary rat cardiomyocyte cells", "assay": "Cobalt chloride hypoxia-mimic treatment, transcript levels by PCR", "type": "cell-based", "details": "150 μM, 4 hours, versus untreated cells", "experimental": "Because HIF-1α consensus sites are present in the apelin regulatory region, experiments were conducted to determine whether apelin expression is hypoxia responsive and regulated by HIF-1α. Upregulation of apelin expression under hypoxic conditions would be consistent with a role for apelin in promotion of tumor angiogenesis. Preliminary experiments were carried out using primary rat cardiomyocyte cells in culture and treatment with cobalt chloride. This procedure is accepted as an equivalent to culturing cells under hypoxic conditions because HIF-1α is a metal responsive transcription protein (Ladoux and Frelin, 1994; Piret et al., 2002; Maxwell and Salnikow, 2004). Fetal rat cardiac myocytes were plated and cultured in DMEM (Invitrogen, Carlsbad, Calif.) supplemented with 10% fetal calf serum and penicillin/streptomyocin at 37° C. After four days of culture, medium was removed, and cells were treated with fresh media containing 150 μM Cobalt Chloride (Piret et al., 2002). […] After 4 hours of culture, cells were harvested, and total RNA was extracted using the Trizol procedure according to the manufacturers recommendations (Invitrogen, Carlsbad, Calif.).\nFollowing PCR, amplification products were fractionated on an agarose gel and visualized using ethidium bromide staining under ultraviolet light (FIG. 12)."}, "[4]": {"test_system": "chicken chorioallantoic membrane (CAM)", "details": "50 ng on filter disc, three days, compared to control PBS", "experimental": "Chicken eggs were incubated at 37° C. in a humidified chamber. On day 10 of development, a small window was made in the outer shell of the egg, and the CAM was released from its attachment to the inner shell membrane. A larger window was then made in the egg to allow for addition of the filter paper containing growth factor. Filter discs (3MM Whatman) of 7-8 mm diameter were pretreated with 10 μl of 0.1% cortisone acetate (Sigma) solution to avoid inflammation of the CAM. The filter discs were air dried prior to application of growth factors. […] After air-drying, the filter discs were placed on the CAM, and eggs were returned to the incubator for three days. Filter discs and the attached CAM were then excised, washed with PBS, trimmed to the size of the disc, and photographed for quantitative analysis (FIGS. 7A and 7B). The number of vessel branch points was determined using a blind protocol. The results are shown as the mean of three independent experiments +/−s.e.m. (FIG. 7C)."}},
  "data": [
    {"compound": "VEGF [reference compound]", "values": [
      {"measurement": "endothelial cell migration (cells per field)", "setting": "BAE/APJ#2 cells [1]", "value": "increase in migration"}
    ]},
    {"compound": "CC(C)c1cc(/C=C(\\C#N)C(=O)NCCCc2ccccc2)cc(C(C)C)c1O", "note": "[SU1498, reference compound]", "values": [
      {"measurement": "effect on VEGF-mediated proliferation", "setting": "BAE/APJ#2 cells [2]; SU1498 10 ng/ml, VEGF 10 ng/ml", "value": "partially inhibits"},
      {"measurement": "effect on apelin-mediated proliferation", "setting": "BAE/APJ#2 cells [2]; SU1498 10 ng/ml, apelin 10 ng/ml", "value": "no significant effect"}
    ]},
    {"compound": "[Cl][Co][Cl]", "note": "[Cobalt Chloride]", "values": [
      {"measurement": "apelin expression (transcript level, PCR)", "setting": "[3]", "value": "significantly increased"}
    ]},
    {"compound": "apelin-13", "values": [
      {"measurement": "endothelial cell migration (cells per field)", "setting": "BAE/APJ#2 cells [1]", "value": "promotes endothelial cell migration"},
      {"measurement": "blood vessel formation in the CAM", "setting": "[4]", "value": "increased"},
      {"measurement": "leakage of blood vessels in the CAM", "setting": "[4]", "value": "increased"},
      {"measurement": "endothelial cell proliferation (percentage BrdU labeling)", "setting": "BAE/APJ#2 cells [2]; 10 ng/ml, 24 hours, serum starved cells", "value": "promotes endothelial cell proliferation to a similar extent as VEGF"},
      {"measurement": "endothelial cell proliferation in the presence of the VEGF inhibitor SU1498", "setting": "BAE/APJ#2 cells [2]; apelin 10 ng/ml with SU1498 10 ng/ml", "value": "still able to promote proliferation"}
    ]}
  ]
}
